The text below walks through data of patent US8937050B2, “Methods and compositions for treatment of autism” (The Johns Hopkins University, priority 2011, dated 2015).

Assay [1] concerns class I and class II HDAC. In words: Colorimetric HDAC activity assay in HeLa or fibroblast lysates. The assay is classed as biochemical. Conditions: HeLa and human fibroblast lysates; two concentrations (treatment concentration and ten times); FIG. 6A-B.
Description: A colorimetric HDAC activity assay was performed in triplicate using 100-200 μg of HeLa or fibroblast lysates following the manufacturer's protocol (K331; Biovision, Mountain View, Calif.).
Whether inhibition of class I and class II HDAC activities is a shared biochemical function that could account for the effects of all four small molecules was examined. Using lysates from HeLa cells and primary human fibroblasts, an in vitro colorimetric assay of HDAC activity was performed. Two concentrations of each small molecule were used. The first concentration was that used to treat primary human fibroblasts in the experiments reported herein, which minimally affects growth. The second concentration was ten times the first concentration and is lethal in cell culture. […] (* p≦0.00009; paired t-test; Bars=SEM for n≧3 independent experiments).
The next assay has as its system Ischemia. The following applies: Qi et al., 2004, Yoon et al., 2008; cited from earlier work.
Another assay deals with liver of mice. The following applies: 3- and 12-hours after single dose 90 mg/kg by gavage, Hu et al., 2005; cited from earlier work.
For the next assay, the system named is JUN, PGC1α and PGC1β. In words: RT-PCR of JUN and mitochondrial transcription factors. The assay is classed as cell-based, human. Conditions: FIG. 2E; for PGC1α and PGC1β transcript levels (abundance of mitochondrial transcription factors): 48 hours or more of treatment; for JUN transcript levels: normal human fibroblasts, six hours of treatment.
In a further assay the test system is SMN protein. Description: Immunoblot analyses of SMN protein expression in spinal muscular atrophy fibroblasts. The format is cell-based, human. The protocol:
Cell lysates were collected in mammalian protein extraction reagent (m-PER; Thermo Scientific, Rockford, Ill.) plus 1×protease inhibitor (Sigma-Aldrich) and 1×Halt phosphatase inhibitor (Thermo Scientific). Denatured SDS-PAGE and immunoblot analyses were performed using the following antibodies: phosphorylated JNK and β-actin from Santa Cruz Biotechnology, HSP70, HSP90, BIP, phosphorylated eIF2α, and XBP1 from Cell Signaling, APG8 (Abgent, San Diego, Calif.), and SOD2 (Stressgen, Ann Arbor, Mich.). Quantitation was performed using a Fuji Intelligent Dark box II, FUJI LAS-1000 Lite software and Image Gauge v4.22 software (Tokyo, Japan).
Spinal muscular atrophy type I (SMA I; GM09677, n=7) or type III (SMA III; 2906, n=2) fibroblasts were treated with either 1.5 mM SFN or 0.5-2 mM SFN, respectively, for 48-72 hr. The average of the relative expression of SMN protein (39 kDa) is plotted. Actin (43 kDa) was used as a loading control.
Spinal muscular atrophy type I (SMA I; GM09677) fibroblasts were treated with either […] HU (n=1) or 1.5 mM SFN (n≧3) in the presence or absence of 10 mM SP600125 (JNK inhibitor), 1 mM 3-methyladenine (APG inhibitor), 2-4 mg/ml antimycin A (MITO inhibitor) or 2 mM sirtinol (SIRT1 inhibitor) for 48 h. SMN protein expression was measured by quantitative immunoblot analyses using actin as a loading control. Fold increases in SMN protein expression are plotted and represented numerically in the table below the graph. Untreated values are normalized to 1. (*P≦0.05; bars=SEM).

Assay [2] relates to spinal muscular atrophy fibroblasts. In words: Mitotracker Red CMXROS staining. The format is cell-based, human. The following applies: 2.5 mM 4PBA, HU, 100 nM TSA or 2.5 mM SFN for 5 days; FIG. 7.
Description: SMA type I (GM00232) fibroblasts were treated with 2.5 mM 4PBA, 300 mM HU, 100 nM TSA or 2.5 mM SFN for 5 days, live stained with 25 nM Mitotracker Red CMXROS (Invitrogen) in pre-warmed MEM media for 15 min at 37° C. in a CO2 incubator. Stained cells were washed with pre-warmed MEM, washed with PBS and excess PBS was removed. The cells were examined under the microscope at ×80.
Spinal muscular atrophy fibroblasts were treated with 2.5 mM 4PBA, 300 mM HU, 100 nM TSA or 2.5 mM SFN for 5 days (×80 magnification).
A further assay concerns the target T1, human recombinant SIRT1 (Homo sapiens, UniProt Q96EB6).
T1 construct: purchased Cayman Chemical Company 10010401
T1 sequence (Q96EB6 1-747): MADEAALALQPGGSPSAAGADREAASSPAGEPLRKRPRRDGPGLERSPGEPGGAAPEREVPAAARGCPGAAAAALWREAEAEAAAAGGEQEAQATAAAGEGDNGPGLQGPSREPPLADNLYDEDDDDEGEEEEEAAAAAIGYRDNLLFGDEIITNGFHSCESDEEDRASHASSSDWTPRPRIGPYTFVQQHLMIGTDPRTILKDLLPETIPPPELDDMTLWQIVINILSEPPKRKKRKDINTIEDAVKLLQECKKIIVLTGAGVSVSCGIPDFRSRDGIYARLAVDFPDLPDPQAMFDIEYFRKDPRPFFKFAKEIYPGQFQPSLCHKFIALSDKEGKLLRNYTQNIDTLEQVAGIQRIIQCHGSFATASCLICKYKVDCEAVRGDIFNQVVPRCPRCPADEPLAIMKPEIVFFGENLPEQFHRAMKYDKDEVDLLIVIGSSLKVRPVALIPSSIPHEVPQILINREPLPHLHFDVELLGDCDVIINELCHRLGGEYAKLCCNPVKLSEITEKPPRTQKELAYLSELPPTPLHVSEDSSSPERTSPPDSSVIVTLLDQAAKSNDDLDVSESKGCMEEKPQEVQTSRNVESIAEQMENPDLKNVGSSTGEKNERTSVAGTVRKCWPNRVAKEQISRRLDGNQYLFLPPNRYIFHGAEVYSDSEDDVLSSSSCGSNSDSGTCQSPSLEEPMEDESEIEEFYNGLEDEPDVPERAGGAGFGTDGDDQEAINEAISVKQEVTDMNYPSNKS
Description: Fluorescence-based SIRT1 activity assay. The assay is classed as biochemical. Conditions: for SIRT1 activity: low and high (10 times) concentration, FIG. 9. The protocol:
A fluorescence-based SIRT1 activity assay was performed in triplicate following the manufacturer's protocol (10010401; Cayman Chemical Company, Ann Arbor, Mich., USA). The percent developer interference was below 3% for each small molecule. The percent fluorophore interference was below 9% for each small molecule. The acceptable interference values were ≦10%.
To determine whether SIRT1 activation was a common biochemical activity of the small molecules under study, a fluorescence-based in vitro SIRT1 activity assay was performed with two concentrations of each drug: that used to treat normal primary human fibroblasts in the experiments reported here (low), and 10 times that concentration, which is lethal in cell culture (high). […] This was a non-cell-based assay, and therefore, it is difficult to determine the effects of 4PBA and SFN on SIRT1 activity in vivo. Regardless, while SIRT1 activation may play a role in the induction of cellular stress responses (Anastasiou et al., 2006), direct biochemical activation or inhibition of SIRT1 is not necessary for the common pharmacological induction of the adaptive cell survival response by all four small molecules.
SIRT1 activity assay. SIRT1 activity was measured by incubating an acetylated lysine substrate with human recombinant SIRT1, cosubstrate NAD+ and the indicated concentration of each small molecule. The percent inhibition of SIRT1 is plotted. (Bars=SEM for triplicate measurements; *p≦0.05; paired t-test).

A further assay concerns human XALD fibroblasts. Conditions: McGuinness et al., 2003; cited from earlier work.
The next assay has as its system Cystic Fibrosis. The following applies: Choo-Kang et al., 2001, Hutt et al., 2010; cited from earlier work.
The subject of assay [3] is ALD (Abcd1−/Y) mouse model. The following applies: ALD (Abcd1−/Y) mouse model in vivo; McGuinness et al., 2003; cited from earlier work.
In assay [4] the test system is X-linked Adrenoleukodystrophy. Conditions: McGuiness et al., 2003; cited from earlier work.
Where [5] appears, read: separate experiments, SMA I GM09677, 300 mM HU or 1.5 mM SFN, 48 h, FIG. 8D.

Description for JUN, PGC1α and PGC1β: Following the manufacturer's protocols, DNase I-treated cDNA was synthesized using Superscript III or Thermoscript reverse transcriptase (Invitrogen). PCR reactions were performed in duplicate on the Roche Lightcycler 3.5 (Basel, Switzerland) or the Bio-Rad iCycler (Hercules, Calif.) using Quantitech SYBR green PCR mix (Qiagen, Valencia, Calif.). GeNorm software calculated a normalization factor for each sample using the relative amounts of at least two of the following reference genes, β2-microglobulin, glyceraldehyde-6-phosphate, actin, and/or eukaryotic elongation factor 1A (Vandesompele et al., 2002).
The relative gene expression for each treatment compared to untreated normal human fibroblasts was calculated and the fold change (drug treated/untreated) is shown.

In the case of `C[S@@+]([O-])CCCCN=C=S` [SFN, 1-isothiocyanato-4R-(methylsulfinyl)butane], in assay [1], the “HDAC activity compared to untreated lysates” value is recorded as “neither concentration of HU nor SFN reduced”. Moreover, the “Therapeutic Effect” value in the assay on Ischemia is “protection via antioxidant”. In the assay on liver of mice, the “Heat shock proteins and ubiquitin/26 S proteasome subunits in liver” value is “induced”. Besides, in the assay on JUN, PGC1α and PGC1β, the “PGC1α and PGC1β transcript levels (abundance of mitochondrial transcription factors)” value (shortened to “PGC1α and PGC1β transcript levels”) is listed as “increased”. Also, the JUN transcript levels result in the assay with JUN, PGC1α and PGC1β is recorded as “not consistently changed”. Also, the “SMN protein expression increase” value in the assay with SMN protein (setting [5]) turned out to be 1.46 fold; in the assay with SMN protein (spinal muscular atrophy type I fibroblasts (GM09677), 1.5 mM SFN, 48-72 hr., FIG. 8C), 1.57 fold; in the assay with SMN protein (spinal muscular atrophy type III fibroblasts (2906), 0.5-2 mM SFN, 48-72 hr., FIG. 8C) it was 1.64 fold. The “mitochondrial biogenesis (Mitotracker staining)” value (“mitochondrial biogenesis” for short) in [2] is “induced”. Further, at human recombinant SIRT1 (5 mM), the inhibition at 5000 µM was 14%. For the same molecule, the inhibition at 50000 µM at human recombinant SIRT1 (50 mM) was found to be 40%.

Take `NC(=O)NO` [HU, hydroxyurea]: in assay [1], the “HDAC activity compared to untreated lysates” value is on record as “neither concentration of HU nor SFN reduced”. In the assay with JUN, PGC1α and PGC1β, the “PGC1α and PGC1β transcript levels” value was “increased”; the JUN transcript levels entry is reported as “significantly increased”. Besides, the “SMN protein expression increase” value in the assay on SMN protein (setting [5]) turned out to be 1.4 fold. For the same molecule, the “mitochondrial biogenesis” value in [2] is given as “induced”. The SIRT1 activity result at human recombinant SIRT1 is reported as “no effect”.

As to 4-phenylbutyrate [4PBA], in [1], the “HDAC activity compared to untreated lysates” value is given as “significantly decreased”. Moreover, the “Therapeutic Effect” value is recorded as “protection via antioxidant” in the assay on Ischemia, “increase proper protein” with Cystic Fibrosis and “decrease very long chain” in assay [4]. Besides, the “abnormally high levels of very long chain fatty acids (VLCFA)” value (in the assay on human XALD fibroblasts; in [3]) was “normalized” each time. Also, in the assay with JUN, PGC1α and PGC1β, the “PGC1α and PGC1β transcript levels” value is “increased”. Further, in the assay on JUN, PGC1α and PGC1β, the JUN transcript levels result is on record as “significantly increased”. The “mitochondrial biogenesis” value in [2] was “induced”. For the same molecule, the “inhibition of SIRT1 activity” value on human recombinant SIRT1 (50 mM, high) turned out to be 54%.

For the molecule `CC(/C=C/C(=O)NO)=C\[C@@H](C)C(=O)c1ccc(N(C)C)cc1` [TSA, trichostatin A], the “HDAC activity compared to untreated lysates” value in assay [1] is reported as “significantly decreased”. For the same molecule, the “abnormally high levels of very long chain fatty acids (VLCFA)” value (in the assay on human XALD fibroblasts; in assay [3]) was “normalized” throughout. Moreover, the “Therapeutic Effect” value in the assay on Cystic Fibrosis is on record as “increase proper protein”; in assay [4], “decrease very long chain”. The “PGC1α and PGC1β transcript levels” value in the assay with JUN, PGC1α and PGC1β is on record as “increased”. Besides, the JUN transcript levels entry in the assay on JUN, PGC1α and PGC1β is given as “significantly increased”. Besides, the “mitochondrial biogenesis” value in [2] is reported as “induced”. For the same molecule, the SIRT1 activity entry on human recombinant SIRT1 was “no effect”.
